Columns and labels:
[1] = tested on: pCDK1/2/3; assay: Immunohistochemistry H-score in paired tumor biopsies, pCDK1/2/3; format: in vivo, human
Protocol: Per-protocol ctDNA samples were taken in Module 1B-1 at screening, C1D1, C2D1 and on D1 of alternating cycles from Cycle 3; in Module 2A at screening, C1D1 and at either C2D1 (240 mg) or C2D15 (360 mg) for mutational analysis[24],[33], (Supplementary Information). pPolII in lymphocytes and pPolII and pCDK1/2/3 in core needle tissue samples from patients recruited to the paired biopsy cohort were evaluated for on-target pharmacodynamic analyses. […]
pharmacodynamic effects in tumor tissue. […]
variability in H-score was observed between sections. […]
H-scores for pre-dose and on-study biopsies and summary statistics for the observed H-score when stained for pCDK1/2/3 and pPolII are shown in Supplementary Table 11. Significance was calculated using Student’s one-tailed paired t-test, where the alternative hypothesis was that on-study samples had

[2] = tested on: cytochrome P450 enzymes; set-up: method as in ref IB; conditions: followed by 3A4 and a small contribution by 2C19; ref IB; cited from earlier work
[3] = tested on: hERG channel; set-up: method as in ref IB; conditions: whole-cell patch-clamp, HEK cells, ref IB, cited from earlier work
[4] = tested on: Han Wistar (Crl:WI [Han]) rats; conditions: cited from earlier work
[5] = tested on: Ames test strains; set-up: method as in ref IB; conditions: up to the lower limit of toxicity; ref IB; cited from earlier work
[6] = tested on: CYP2C19; set-up: method as in ref IB; conditions: human microsomes; ref IB; cited from earlier work
[7] = Module 4 food effect study; format: in vivo, human
Protocol: Carrick Therapeutics CT7001_001, Volume 3, Module 1, Part B-1 (TNBC) […]
in a test using the whole-cell patch-clamp technique (human embryonic kidney [HEK] cells transfected with hERG), and the CT7001 IC50 in the K+ channel was determined to be greater […]
Cardiovascular toxicity potential was also studied in vivo in dogs. Oral administration of 5, 15, and 20 mg/kg CT7001 had no effect on haemodynamic parameters, ECG parameters, or body temperature in the dog, compared with control article (vehicle) administration.
Effects of CT7001 on the central nervous system (CNS [Irwin]) and respiratory systems were […]
CT7001 has low mutagenic potential. At concentrations up to the lower limit of toxicity, it induced no mutations in a five strains Ames test.
2.3.2 Current Clinical Data of CT7001
A first-in-human multi-module Phase I/II clinical study commenced in November 2017 […]
only clinical study conducted to date.
The single- and multiple-ascending dose Phase 1a part of the study (Module 1, Part A) is completed. 33 dosed patients have completed this part of Module 1 (120, 240, 480 mg and a step-down dose level of 360 mg, all taken once daily (OD), and 180 mg given twice a day (BID), all in a fasted state). […]
Module 4 evaluated the effect of food on CT7001 bioavailability in cancer patients. […]

[8] = tested on: phosphorylation of RNA Pol II, CDK1 and 2; set-up: method as in ref IB; conditions: in vitro and in vivo, tumour and normal cells; ref IB; cited from earlier work
[9] = tested on: CDK7; conditions: cited from earlier work
[10] = tested on: human peripheral blood lymphocytes; set-up: method as in ref IB; conditions: ref IB; cited from earlier work

## CC(C)c1cnn2c(NCc3ccccc3)cc(NC[C@H]3CCNC[C@@H]3O)nc12 [samuraciclib, Samuraciclib]
[1]; Average 240mg OD patients, pre-dose 169
  pCDK1/2/3 H-Score, On study, average: […]
[1]; Average 360mg OD patients, pre-dose 119
  pCDK1/2/3 H-Score, On study, average: 118
[1]; Average all patients, pre-dose 144
  pCDK1/2/3 H-Score, On study, average: 110
[1]; HR+ breast cancer, breast biopsy, 360 mg OD, pre-dose 178
  pCDK1/2/3 H-Score, On study: 112
[1]; HR+ breast cancer, liver biopsy, 240 mg OD, pre-dose 125
  pCDK1/2/3 H-Score, On study: 90
[1]; HR+ breast cancer, liver biopsy, 240 mg OD, pre-dose 234
  pCDK1/2/3 H-Score, On study: 151
[1]; HR+ breast cancer, liver biopsy, 360 mg OD, pre-dose 89
  pCDK1/2/3 H-Score, On study: 128
[1]; HR+ breast cancer, liver biopsy, 360 mg OD, pre-dose 91
  pCDK1/2/3 H-Score, On study: 113
[1]; Rhabdomyosarcoma, axilla biopsy, 240 mg OD, pre-dose 148
  pCDK1/2/3 H-Score, On study: 64
[1]; paired biopsy cohort
  Levels of pCDK1/2/3 in tumors: showed a reduction, although this did not reach statistical significance
[2]
  CYP mediated clearance: mainly occurs via CYP2D6
[3]
  hERG channel tail current: […]
[3]; read-out: IC50 in the K+ channel (hERG)
  IC50: […]
[4]; 120 mg/kg/day, Han Wistar rats, ref IB
  Findings in 4-week oral gavage study: deaths and severe clinical
[4]; rat, in vivo
  HNSTD (middle dose tested): 60 mg/kg
[5]
  Mutations in five strains Ames test: no mutations
[6]
  IC50: […]
[7]
  Food effect on exposure or % variability: no food effect was seen
[8]
  Phosphorylation of RNA Pol II, CDK1 and 2: inhibits the phosphorylation
[9]
  Selectivity over the next most sensitive kinase: […]
[10]
  Genotoxicity in micronucleus tests: Low potential for genotoxicity

From publication PMC10366102, “Dose escalation and expansion cohorts in patients with advanced breast cancer in a Phase I study of the CDK7-inhibitor samuraciclib” (Nature Communications, 2023)
